The nature of this data set: Dissolution in acetone when preparing the test solution. It is filed as physicochemical. Particulars: acetone added so that the concentration was 0.5 mg/ml. How it is done:
Acetone was added to each of Test Compounds 1 to 17 so that the concentration was 0.5 mg/ml, thereby preparing solutions.

Structures are written as SMILES.

We go through 1 molecule from patent publication US20140148477A1, “ANIMAL ECTOPARASITE-CONTROLLING AGENT AND METHOD FOR PREVENTING OR TREATING INFECTION IN ANIMALS CAUSED BY PARASITES BY USING THE CONTROLLING AGENT” (OTSUKA AGRITECHNO CO., LTD., priority 2011, published 2014).

Take `COC(Cn1nc(-c2cc(F)cc(F)c2)cc1O[C@@H]1CCN(c2ccc(C(F)(F)F)cn2)C[C@@H]1C)OC` [Test Compound 15]: the solubility in acetone result was “not dissolved in acetone”.
